These results are taken from PubChem BioAssay (NCI).

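1) Cells in 96-well plates. 2) Compound, 48 h, 5 concentrations. 3) Linear interpolation between surrounding doses. 4) Unreached endpoint = highest concentration. The concentration for full growth arrest is given as TGI.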

Holding throughout (test): inhibition of tumour cell growth, NCI panel, 48 h
Assay [1] has as its system NCI/ADR-RES ovarian.
Assay [2] concerns CAKI-1 renal.
The test system of assay [3] is SR leukemia.
For assay [4], the system named is CCRF-CEM leukemia.
Assay [5] concerns SN12C renal.
Assay [6] has as its system HOP-92 NSCLC.
For assay [7], the system named is HL-60(TB) leukemia.
Assay [8] relates to RPMI-8226 leukemia.
In assay [9] the test system is ACHN renal.
Assay [10] has as its system SF-268 CNS.
In assay [11] the test system is MDA-MB-435.
Assay [12] has as its system HCT-116 colon.
Assay [13] has as its system NCI-H460 lung.
In assay [14] the test system is OVCAR-5 ovarian.
Assay [15] deals with SK-MEL-28 melanoma.
The test system of assay [16] is MDA-MB-231 breast.
Assay [17] has as its system NCI-H23 lung.
Assay [18] has as its system SK-MEL-2 melanoma.
For assay [19], the system named is OVCAR-3 ovarian.
Assay [20] has as its system XF 498 CNS.

As to `NC(=O)c1cc2cc(Cl)cc(Cl)c2oc1=Nc1ccc(F)cc1`, the TGI in [1] is 34.5 µM; in [2], 38 µM; in assay [3], 24.8 µM; in assay [4], above 100 µM; in assay [5], 38 µM; in assay [6], 80.4 µM. The TGI is above 100 µM in [7]; 61.7 µM in [8]; 41.8 µM in assay [9]; above 100 µM in assay [10]; 44.2 µM in assay [11]; 38.3 µM in assay [12]. Further, the TGI in assay [13] was determined as 35.5 µM; in [14], 54.6 µM; in [15], 46.3 µM; in [16] it was 35.6 µM; in assay [17] it was 27.8 µM; in [18], 31.6 µM. Moreover, the TGI in assay [19] was 52.9 µM.

Consider `CC1SC2=NC3=C(c4ccccc4C3=O)C(c3ccc(F)cc3)N2C1=O` (centres undefined), for which the TGI in assay [2], in assay [20], in assay [4], in assay [5], in assay [6] and in assay [7] was above 100 µM throughout. The TGI in [8], in [9], in [10], in assay [12], in assay [13] and in assay [14] was above 100 µM each time. Besides, the TGI in [15], in assay [17], in assay [18] and in assay [19] was above 100 µM each time.

On to `O=C(C1OC1c1ccc(O)cc1)C12CC3CC(CC(C3)C1)C2` (centres undefined), for which the TGI in assay [1] is above 100 µM; in assay [2], above 66.1 µM; in assay [3], above 100 µM; in assay [4], above 41.5 µM; in assay [5] it was above 69.7 µM; in [6], 57.4 µM. For the same compound, the TGI in [7] was above 43.4 µM; in assay [8] it was above 73 µM; in assay [9], above 94.5 µM; in [10], above 100 µM; in assay [11], above 55 µM; in assay [12], above 69.8 µM. Further, the TGI in [13], in assay [14], in assay [15], in assay [16], in assay [17] and in assay [18] was above 100 µM each time. The same compound registered a TGI in assay [19] above 64.8 µM.

Regarding `Cc1c(/C=N/NC(=O)c2cc(Br)cc(Br)c2O)c(=O)n(-c2ccccc2)n1C`, the TGI in assay [2] was 94.2 µM; in assay [20] it was 37.9 µM; in assay [4], above 100 µM; in assay [5], above 100 µM; in [6], above 100 µM; in assay [7], 5.97 µM. For the same compound, the TGI in [8], in assay [9], in [10], in [12], in assay [13] and in assay [14] was above 100 µM each time. Further, the TGI in assay [15] is 49.8 µM; in [17] it was above 100 µM; in [18] it was above 100 µM; in assay [19], 95.7 µM.

With `CC(=O)NC(CS/N=N/c1nc[nH]c1C(N)=O)C(=O)O` (centres undefined), the TGI in assay [1] is above 100 µM; in assay [2] it was above 41.2 µM; in [3], 0.0673 µM; in assay [4], above 23.1 µM; in [5], above 55.9 µM; in [6], above 100 µM. Besides, the TGI in assay [7] was above 23.7 µM; in assay [8], above 31.6 µM; in [9], above 100 µM; in [10] it was above 100 µM; in assay [11], above 100 µM; in assay [12] it was above 100 µM. The TGI in assay [13] is above 100 µM; in assay [14], above 100 µM; in [15], above 100 µM; in assay [16], above 27.8 µM; in [17], above 100 µM; in [18], above 100 µM. The TGI in [19] is above 100 µM.

Take `C=CC/C=C/Cc1csc(C(C)(C)C(O)C/C=C/C(=C)CCNC(=O)OC)n1` (centres undefined): the TGI in [1], in assay [2], in assay [20], in assay [3], in assay [4] and in assay [5] was above 100 µM each time. Moreover, the TGI in assay [6] was above 100 µM; in assay [7], above 79.4 µM; in [8], above 100 µM; in [9] it was above 100 µM; in [10], above 100 µM; in [11], above 100 µM. Further, the TGI in assay [12], in assay [13], in assay [14], in assay [15], in assay [17] and in assay [18] was above 100 µM in each case. This compound registered a TGI in assay [19] above 100 µM.

`CC(=O)OCC1OC(OC2C(CSC3OC(COC(C)=O)C(OC(C)=O)C(OC(C)=O)C3OC(C)=O)OC(OC(C)=O)C(OC(C)=O)C2OC(C)=O)C(OC(C)=O)C(OC(C)=O)C1OC(C)=O` (centres undefined): the TGI in [2], in assay [20], in [3], in assay [4], in assay [5] and in assay [6] was above 100 µM in each case. The TGI in assay [8], in [9], in assay [10], in assay [12], in [13] and in assay [14] was above 100 µM each time. The TGI in assay [15], in [17] and in assay [19] was above 100 µM each time.

Take `CC1(C)C(=NNC(=O)C[N+](C)(C)C)C(C)(C)C1=NNC(=O)C[N+](C)(C)C`: the TGI in [2], in assay [20], in [3], in assay [4], in [5] and in assay [6] was above 100 µM in each case. Besides, the TGI in assay [7], in assay [9], in assay [10], in [12], in assay [13] and in assay [14] was above 100 µM throughout. For the same compound, the TGI in assay [15], in assay [17], in assay [18] and in [19] was above 100 µM each time.
